Structures can show the parent of a compound that is named as a salt.
Assay: Kinematic viscosity of surfactant base formulation with added agent, calibrated Cannon viscometers at 40° C.
Format: physicochemical
Settings: for Kinematic viscosity at 40 C. [cSt] 2% oil: 2% agent in base formulation; for Kinematic viscosity at 40 C. [cSt] 4% oil: 4% agent in base formulation; for Kinematic viscosity at 40 C. [cSt] Lowest viscosity achieved: lowest over 2-8% agent, Table 2; for Kinematic viscosity at 40 C. [cSt] 6% oil: 6% agent in base formulation; for Kinematic viscosity at 40 C. [cSt] 8% oil: 8% agent in base formulation
From the text: Referring to Tables 1 and 2, the base formulations were made by mixing 1.6% perfume, 24% sodium undecyl sulfate (CAS#1072-24-8) active, 6% lauramidopropyl betaine (CAS#4292-10-8) active and 60.4% deionized water which leaves 8% unfilled for the addition of a viscosity reducing agent (the balance being filled in by distilled water). For all compositions, the surfactant, water and additives including viscosity reducing agents were expected to be in a single phase.
The agents from Tables 1 and 2 were added to the base formulation at a percentage of 2%, 4%, 6%, and 8% into the above surfactant solution. The subsequent formulations were vortexed and put into oven at 60° C. overnight to form homogeneous solution. The viscosities of the formulations were measured with calibrated viscometers (Size 200/350/450) from Cannon Instrument Company (2139 High Tech Road, State College, Pa., USA, 16803).
After the equilibration, the formulations were drawn to reach the starting mark with a rubber suction bulb and the flow time between the starting mark and end mark was recorded for calculation. Each formulation was measured three times to calculate average and standard deviation. Between samples, viscometer was cleaned with water and acetone to rinse off residual.
Viscosity values were calculated based on the equation:
Viscosity (mm^2/s·(cSt))=Time (s)*Constant (mm^2/s^2·(cSt/s))
The time in the above equation is the flow time recorded in the experiment and the constant numbers for each calibrated viscometer were obtained from the manuals.
The viscosity of the hair care composition can be calculated using the following method: Combine ingredients including surfactants, perfumes, viscosity reducing agents, polymers, other ingredients and the aqueous medium in a vessel. Samples are vortexed and placed into oven at 60° C. overnight to form a homogeneous solution. Samples that show hazing or clouding and formulas that appear macroscopically heterogeneous (e.g. multiple layers) at room temperature are not considered for further analysis and evaluation.
The viscosities of the formulations are measured with calibrated viscometers (Size 200/350/450) from Cannon Instrument Company (2139 High Tech Road, State College, Pa., USA, 16803). Prior to the measurement, the formulations are equilibrated in the viscometer reservoir for 30 min at 40° C. in water bath to ensure a homogeneous temperature is reached in the system.
After the equilibration, the formulations are drawn to reach the starting mark with a rubber suction bulb and the flow time between the starting mark and end mark is recorded for calculation. Each formulation is measured three times to calculate average and standard deviation. Between samples, the viscometer is cleaned with water and acetone to rinse off residual.

Structure (SMILES)	Kinematic viscosity at 40 C. [cSt] 2% oil	Kinematic viscosity at 40 C. [cSt] 4% oil	Kinematic viscosity at 40 C. [cSt] Lowest viscosity achieved	Kinematic viscosity at 40 C. [cSt] 6% oil	Kinematic viscosity at 40 C. [cSt] 8% oil
COC(C)(C)C1CC=C(C)CC1 (stereo not drawn) [Orange Flower Ether]	552.2 cSt	418.8 cSt	419 cSt		
CC(=O)OCCC(C)CCCC(C)C (stereo not drawn) [3,7-Dimethyloctyl Acetate]	445.7 cSt		446 cSt		
CCOC(=O)CC(O)(CC(=O)OCC)C(=O)OCC [Triethyl Citrate]	269.4 cSt	136.6 cSt	41 cSt	66.6 cSt	40.5 cSt
CCCCCCCCCCCCCC(=O)OC(C)C [Iso Propyl Myristate]	234.2 cSt	53.7 cSt	30 cSt	30.4 cSt	45.0 cSt
CC12CCC(CC1=O)C2(C)C (stereo not drawn) [Camphor Gum]	365.8 cSt	127.2 cSt	127 cSt		
CC(C)COC(=O)c1ccccc1O [Iso Butyl Salicylate]	408.7 cSt		409 cSt		
CC1=CC=C(C(C)C)CC1 [alpha-Terpinene]	324.4 cSt	96.0 cSt	42 cSt	41.5 cSt	46.7 cSt
CC(CC=O)CCCC(C)(C)O (stereo not drawn) [Hydroxycitronellal]	310.8 cSt	145.4 cSt	34 cSt	65.9 cSt	34.1 cSt
CCCCCCCC(OC)OC [1,1-Dimethoxyoctane]	500.7 cSt	308.1 cSt	308 cSt		
CCCCCCC1C(=O)CCC1C(=O)OC (stereo not drawn) [Dihyro Iso Jasmonate]	334.9 cSt	119.1 cSt	119 cSt		
CC12CCC(CC1)C(C)(C)O2 [Eucalyptol]	527.3 cSt	292.9 cSt	203 cSt	203.1 cSt	
CC(=O)CCc1ccc(O)cc1 [Raspberry Ketone]	151.9 cSt	107.4 cSt	33 cSt	54.0 cSt	33.0 cSt
CC(C)CCOC(=O)c1ccccc1O [Isoamyl Salicylate]	460.3 cSt	193.2 cSt	193 cSt		
CC1=CCC(C(C)C)=CC1 [gamma-Terpinene]	238.0 cSt	65.0 cSt	32 cSt	31.7 cSt	
CCO [Ethanol, reference compound]	205.6 cSt	111.0 cSt	29 cSt	50.8 cSt	29.2 cSt
C=C(C)[C@H]1CC=C(C)CC1 [Limonene]	366.5 cSt	166.8 cSt	86 cSt	97.5 cSt	86.4 cSt
CCCCCC(=O)OCC(C)C [Isobutyl Hexanoate]	390.0 cSt	177.9 cSt	109 cSt	140.9 cSt	109.4 cSt
CC(C)CC=C(C=O)C(C)C [2-Isopropyl-5-methyl-2-hexenal]	332.3 cSt		332 cSt		
C=CC(C)(CCC=C(C)C)OC(=O)C(C)C (stereo not drawn) [Linalyl Iso Butyrate]	223.4 cSt	73.0 cSt	38 cSt	37.7 cSt	39.9 cSt
CCC(=O)O[C@@H]1C[C@H]2CC[C@]1(C)C2(C)C (racemic) [Iso Bornyl Propionate]	463.1 cSt		463 cSt		
CCCCOC(=O)c1ccccc1O [Butyl Salicylate]	367.9 cSt		368 cSt		
CCC(=O)OC1CC2CC1C1CC=CC21 (stereo not drawn) [Cyclaprop]	404.2 cSt		404 cSt		
CCCCCC1(C)CCC(C)(C)C1=O (stereo not drawn) [Veloutone]	260.2 cSt	129.1 cSt	47 cSt	56.3 cSt	47.3 cSt
CCC(CC(C)CC)=NO (stereo not drawn) [5-Methyl-3-Heptanone Oxime]	246.3 cSt		246 cSt		
C=C(C)[C@H]1CC=C(C)CC1 [Dipentene]	307.6 cSt	74.5 cSt	35 cSt	35.1 cSt	42.6 cSt
CC(=O)OCCC(C)CCC=C(C)C (stereo not drawn) [Citronellyl Acetate]	362.7 cSt		363 cSt		
CC(C)=CCC/C(C)=C/COC(=O)Cc1ccccc1 [Geranyl Phenyl Acetate]	224.0 cSt	76.0 cSt	34 cSt	34.3 cSt	36.6 cSt
CCCCCCCCCCCCCCCC [Hexadecane]	21.1 cSt	18.1 cSt	18 cSt		
